Each structure is given as a SMILES string.

The term IC50 denotes the point on the concentration scale where inhibition reaches its midpoint.

For experiment [1], the target named is T1, human-SP9215 (GPR119) (Homo sapiens, UniProt Q8TDV5).
T1 construct: expressed in transfected cells
T1 sequence (Q8TDV5 1-335): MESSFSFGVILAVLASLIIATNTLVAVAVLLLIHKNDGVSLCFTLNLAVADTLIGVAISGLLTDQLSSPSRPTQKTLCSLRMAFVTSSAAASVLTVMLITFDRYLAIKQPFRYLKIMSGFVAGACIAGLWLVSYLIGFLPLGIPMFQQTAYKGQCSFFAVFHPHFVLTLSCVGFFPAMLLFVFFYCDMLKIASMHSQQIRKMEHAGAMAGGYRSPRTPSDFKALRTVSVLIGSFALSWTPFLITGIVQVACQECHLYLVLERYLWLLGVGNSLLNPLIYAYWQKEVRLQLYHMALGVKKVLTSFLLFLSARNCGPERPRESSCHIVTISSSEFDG
Briefly: GPR119 screening assay (LANCE cAMP). It is filed as cell-based. The following applies: HEK 293 cells stably transfected with human GPR119, read-out: GPR 119 cAMP IC50. On the procedure: • +100 mg BSA (MP Biomedicals faction V, #103703)=0.1% • +500 ul 1M HEPES (Cellgro #25-060-CI)=5 mM • +75 ul RO-20 (Sigma B8279; 20 mM stock in DMSO stored in aliquots at −20 C)=15 uM • (made fresh daily) B84 (N-[4-(methylsulfonyl)phenyl]-5-nitro-6-[4-(phenylthio)-1-piperidinyl]-4-pyrimidinamine, see WO 2004/065380). A 10 mM stock solution of the test compound in DMSO was prepared, aliquoted and stored at −20 C. For Totals—Dilute 1:33.3 in DMSO then 1:50 in Stimulation Buffer=6 uM in 2% DMSO (=3 uM B84 and 1% DMSO final). For Dose Response Curve—3 ul stock+7 ul DMSO+490 ul Stim Buffer=60 uM in 2% DMSO (=30 uM B84 and 1% DMSO final). (made fresh daily). Cell Line: Human clone 3. HEK 293 cells stable transfected with human-SP9215 (GPR119)/pcDNA3.1 and also stable for pCRELuc, Stratagene. Cells are maintained in DMEM containing 10% FBS (invitrogen #02-4006Dk, lot #1272302, heat inactivated), 1×MEM, 1× Pen/Strep, 0.1 mg/ml Hygromycin 6, and […] G418. Cells are split 1:8 twice per week. cAMP Kit: LANCE™ cAMP 384 kit, Perkin Elmer #AD0263 Compound Dilutions: • Add DMSO to vials containing compounds to yield a 1 mg/ml solution. • 1. Dilute compounds to 60 μM in Stimulation buffer. Make ½ log dilutions into Stimulation buffer containing 2% DMSO using the epMotion robot. 10 point dose response curve 1 nM to 30 uM. • 2. Compounds are run in quadruplicate, 2 separate dilutions for each, sets 1 and 1a. Assay Procedure: • 1. The afternoon before the assay, replace the media in the flask of Human clone 3 cells with Optimem. (Gibco #11058-021) NOTE: cells should be in culture 6-8 days. • 2. Next morning, pipette the cells gently off the flask using HBSS (RT). • 3. Pellet the cells (1300 rpm, 7 min, RT) and resuspend in Stimulation Buffer at […] (=5-8,000 cell/6 ul). Add 1:100 dilution of Alexa Fluor 647-anti cAMP antibody (provided in the kit) directly to the cell suspension. • 4. Into white 384-well plates (Matrix) add 6 ul of 2× B84, cmpds or stim buffer for nsb. They all contain 2% DMSO (=1% DMSO final). • 5. Add 6 ul of the cell suspension to the wells. Incubate 30 minutes RT. • 6. For the std curve add 6 ul cAMP std solution diluted in Stim Buffer+2% DMSO according to kit directions (1000-3 nM). Add 6 ul of 1:100 anti-cAMP dilution in Stim Buffer to std wells. • 7. Make Detection Mix according to kit instructions and incubate 15 min RT. • 8. Add 12 ul Detection Mix to all the wells. Mix gently by tapping and incubate 2-3 hrs RT. • 9. Read on the Envision under the protocol “Lance/Delphia cAMP” • 10. Values (nM) for each sample are determined by extrapolation from the std curve. % Control, Fold and EC50 (Control=3 uM B84) are determined for each compound, averaging sets 1 and 1a. Results
On the technique in general: TR-FRET usually uses a lanthanide donor and a delayed reading to cut background.

Experiment [2] concerns the target T2, human CaV3.2 (Homo sapiens, UniProt O95180).
T2 construct: expressed in transfected cells
Briefly: IonWorks screen for hCaV3.2 (Cav3.2 Ionworks assay). Type of experiment: cell-based. The following applies: read-out: IW hCav3 2 IC50. The text has this: Functional evaluation of voltage-gated ion channels was used to determine potency and/or single concentration efficacy of proprietary compounds. Two different methodologies were used to measure ion currents: the IonWorks HT (Molecular Devices, Sunnyvale, Calif.) a moderate throughput voltage clamp screening platform that utilizes 96-well compound plates and conventional whole cell patch clamp for lower throughput, higher fidelity determinations.
HEK cells were transiently transfected and then selected for stable heterologous expression of different channel proteins of interest. Calcium channel cell lines expressed a resting potassium current, human Kir2.1, and the pore forming α-subunit of voltage-gated calcium channels. In the case of CaV2.1 cells the auxiliary subunit, β2a, was also expressed. Calcium channel lines that were used to generate the data in this document expressed either human CaV3.2, rat CaV3.2 or human CaV2.1. The human heart sodium channel, hNaV1.5, was stably expressed in CHO cells. These cells were licensed from the University of Pennsylvania.
Cell lines were grown at 37° C. in humidified incubators, equilibrated with 95% air/5%0 CO2 CHO cells were grown in Ham's F-12 medium. HEK cells were grown in DMEM. All media were supplemented with 10% heat-inactivated fetal bovine serum, penicillin, streptomycin and appropriate selection antibiotics (zeocin, geneticin and/or hygromycin). Cells were passaged when 80% confluent or less.
IonWorks Screen for hCaV3.2
The extracellular buffer for experiments using this instrument contained the following (mM) (NaCl 125, HEPES 10, KCl 5.4, CaCl2 1.8, MgCl2 1.8, 0.2 BaCl2 pH 7.35). The IonWorks uses amphotericin to gain electrical access to the cell interior. The internal solution contained (mM concentrations): 130 K-gluconate, 20 KCl, 5 HEPES-KOH (pH 7.25), 2 CaCl2, 1 MgCl2. Amphotericin added at 5 mg in 65 ml when present (in 650 μl DMSO). All internal and external solutions for this experiment contain 1% DMSO. Cells were acutely trypsinized from a T-75 flask and resuspended in extracellular buffer at a density of 2×10^5 cells/ml.
Experiments were performed at room temperature. Transmembrane potential was held at −100 mV for 5 seconds prior to running the voltage protocol. During this time leak currents were measured during a step to −110 mV (200 milliseconds). T-type calcium currents were activated with a 250 millisecond step to −20 mV. This depolarization step was repeated for a total of 10 pulses with an interpulse interval of 1 second. Data were excluded if the following acceptance criteria were not met: total resistance for the pre-compound scan >65 MΩ, pre-compound current >250 pA, post compound total resistance >50 MΩ.
T-type currents were measured as the peak inward current minus the current at the end of the 250 msec step to −20 mV. After the recoding configuration was established there was a pre-compound measurement of current amplitude. Compound was added as a 3× solution containing 1% DMSO. After incubation with compound for 10 minutes currents were measured again. The current amplitude after compound addition was divided by the pre-compound current for pulse 10 to determine the fraction of current remaining after compound addition. For each compound, 8-point concentration-effect relationships were measured with ½ log serial dilutions.
In general terms: The patch-clamp technique gives a direct electrical read-out from membranes.

T2 sequence (O95180 whole entry): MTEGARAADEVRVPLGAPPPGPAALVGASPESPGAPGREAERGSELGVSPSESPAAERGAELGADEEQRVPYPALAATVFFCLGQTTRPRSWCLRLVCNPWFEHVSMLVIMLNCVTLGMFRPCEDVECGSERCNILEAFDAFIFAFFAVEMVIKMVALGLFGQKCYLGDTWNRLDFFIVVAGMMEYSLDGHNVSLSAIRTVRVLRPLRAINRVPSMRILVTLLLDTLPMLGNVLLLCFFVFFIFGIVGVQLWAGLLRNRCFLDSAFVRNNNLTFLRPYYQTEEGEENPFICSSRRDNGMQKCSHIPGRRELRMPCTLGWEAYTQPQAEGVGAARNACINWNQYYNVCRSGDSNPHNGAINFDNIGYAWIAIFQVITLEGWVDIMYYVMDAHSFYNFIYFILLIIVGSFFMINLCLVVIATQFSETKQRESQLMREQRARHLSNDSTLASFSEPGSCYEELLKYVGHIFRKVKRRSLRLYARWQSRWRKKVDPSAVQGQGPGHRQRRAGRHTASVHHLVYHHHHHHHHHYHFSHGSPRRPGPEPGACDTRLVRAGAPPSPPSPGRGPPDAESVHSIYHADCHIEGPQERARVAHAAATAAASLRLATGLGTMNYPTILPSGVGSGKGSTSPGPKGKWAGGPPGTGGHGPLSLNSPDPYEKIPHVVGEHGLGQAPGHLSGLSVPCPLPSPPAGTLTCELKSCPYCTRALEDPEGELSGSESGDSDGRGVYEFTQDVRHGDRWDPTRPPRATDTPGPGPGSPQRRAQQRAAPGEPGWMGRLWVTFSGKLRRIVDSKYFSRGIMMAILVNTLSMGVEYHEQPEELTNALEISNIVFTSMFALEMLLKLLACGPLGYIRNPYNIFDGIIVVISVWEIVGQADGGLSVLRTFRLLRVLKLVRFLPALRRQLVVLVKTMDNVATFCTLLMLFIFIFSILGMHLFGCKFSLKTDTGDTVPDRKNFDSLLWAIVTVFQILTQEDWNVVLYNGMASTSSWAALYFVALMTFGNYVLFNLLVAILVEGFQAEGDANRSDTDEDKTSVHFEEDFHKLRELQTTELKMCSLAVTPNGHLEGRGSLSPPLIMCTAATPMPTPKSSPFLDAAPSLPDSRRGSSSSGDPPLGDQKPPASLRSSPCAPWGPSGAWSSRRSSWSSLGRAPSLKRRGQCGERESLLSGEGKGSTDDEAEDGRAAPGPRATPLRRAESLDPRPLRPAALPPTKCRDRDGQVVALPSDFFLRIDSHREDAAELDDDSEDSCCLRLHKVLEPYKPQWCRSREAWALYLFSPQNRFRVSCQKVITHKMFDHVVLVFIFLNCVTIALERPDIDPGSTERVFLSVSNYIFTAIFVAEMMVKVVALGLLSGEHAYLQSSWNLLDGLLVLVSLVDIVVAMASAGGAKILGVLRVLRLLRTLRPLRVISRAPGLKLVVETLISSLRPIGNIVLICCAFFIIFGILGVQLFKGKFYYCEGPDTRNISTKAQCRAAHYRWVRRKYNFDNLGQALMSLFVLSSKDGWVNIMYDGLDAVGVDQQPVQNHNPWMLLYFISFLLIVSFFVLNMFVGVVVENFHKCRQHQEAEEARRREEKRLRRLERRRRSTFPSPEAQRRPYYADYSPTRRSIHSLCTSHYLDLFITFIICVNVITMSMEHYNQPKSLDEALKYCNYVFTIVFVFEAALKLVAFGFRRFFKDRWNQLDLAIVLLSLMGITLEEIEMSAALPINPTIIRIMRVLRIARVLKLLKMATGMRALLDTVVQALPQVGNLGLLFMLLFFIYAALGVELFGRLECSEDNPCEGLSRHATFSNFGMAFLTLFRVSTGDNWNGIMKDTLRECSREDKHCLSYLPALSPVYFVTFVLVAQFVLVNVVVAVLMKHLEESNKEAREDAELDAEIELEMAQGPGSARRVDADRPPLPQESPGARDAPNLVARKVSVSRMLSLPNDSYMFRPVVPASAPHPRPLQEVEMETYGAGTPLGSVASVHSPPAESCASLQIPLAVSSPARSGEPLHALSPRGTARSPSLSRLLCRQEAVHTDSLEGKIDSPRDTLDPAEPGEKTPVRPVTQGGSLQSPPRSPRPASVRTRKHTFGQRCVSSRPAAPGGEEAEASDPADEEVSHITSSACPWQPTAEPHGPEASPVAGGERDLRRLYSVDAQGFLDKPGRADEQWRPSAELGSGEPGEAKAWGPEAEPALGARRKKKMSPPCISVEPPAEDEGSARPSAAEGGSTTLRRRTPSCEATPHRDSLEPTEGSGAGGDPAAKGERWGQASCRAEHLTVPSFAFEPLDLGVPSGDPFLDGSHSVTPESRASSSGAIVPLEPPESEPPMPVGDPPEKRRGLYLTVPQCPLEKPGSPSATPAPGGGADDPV

As to `O=C(c1ccc2[nH]cnc2c1)N1CCC2(CC1)CN(Cc1ccccc1Cl)C2c1ccccc1` (stereo not shown), the IC50 in experiment [1] was 2980 nM. Take `CC(C)N1CC2(CCN(C(=O)Nc3cc(F)cc(F)c3)CC2)C1c1ccc(Cl)cc1` (single isomer, unassigned): the IC50 in experiment [2] stood at 32 nM.

On to `O=C(c1ccc2c(c1)OCCCO2)N1CCC2(CC1)CN(Cc1ccccc1Cl)C2c1ccc(Cl)cc1` (stereo not shown), for which the half-maximal inhibitory concentration (IC50) in experiment [1] worked out at 2770 nM. In the case of `O=C(c1ccc2c(c1)OCCCO2)N1CCC2(CC1)CN(c1ccc(F)cc1)C2c1ccc(Cl)cc1` (stereo not shown), the IC50 in experiment [1] is 1640 nM. For `COC(=O)[C@@H](NC(=O)N1CCC2(CC1)CN(CC(C)C)C2c1ccc(Cl)cc1)C(C)C` (stereo partly shown), in experiment [2], the 50% inhibitory concentration (IC50) is 32 nM. Consider `CC[C@H](C)[C@H](NC(=O)N1CCC2(CC1)CN(c1ccc(F)cc1)C2c1ccc(Cl)cc1)C(=O)OC` (stereo partly shown), for which the IC50 in experiment [2] was found to be 77 nM. In the case of `CC(C)CN1CC2(CCN(C(=O)c3ccc4c(c3)OCCCO4)CC2)C1c1ccccc1` (stereo not shown), the IC50 in experiment [1] stood at 1920 nM. Consider `COC(=O)[C@H](CC(C)C)NC(=O)N1CCC2(CC1)CN(C(C)C)C2c1ccc(Cl)cc1` (stereo partly shown), for which the IC50 in experiment [2] came out at 65 nM. Consider `O=C(C1CCCCC1)N1CCC2(CC1)CN(C(=O)C1(c3ccc(Cl)cc3)CCCC1)C2c1ccccc1` (stereo not shown), for which the IC50 in experiment [2] amounted to 376 nM. For the compound `COC(=O)[C@H](CC(C)C)NC(=O)N1CCC2(CC1)CN(CC(C)C)C2c1ccc(Cl)cc1` (stereo partly shown), the half-maximal inhibitory concentration (IC50) in experiment [2] was found to be 23 nM.

With `CC(C)CN1CC2(CCN(C(=O)c3ccc4c(c3)OCCCO4)CC2)C1c1ccc(Cl)cc1` (stereo not shown), in experiment [1], the concentration for half-maximal inhibition (IC50) came out at 2620 nM. As for `CC[C@H](C)[C@H](NC(=O)N1CCC2(CC1)CN(CC(C)C)C2c1ccc(Cl)cc1)C(=O)OC` (stereo partly shown), the IC50 in experiment [2] came out at 26 nM.

Consider `CC(C)N1CC2(CCN(C(=O)Nc3ccc(F)cc3)CC2)C1c1ccc(Cl)cc1` (single isomer, unassigned), for which, in experiment [2], the IC50 was found to be 69 nM.

For the origin of these results see patent US20080070892A1, “TREATING PAIN, DIABETES, AND DISORDERS OF LIPID METABOLISM” (priority 2006, published 2008).
